Columns and labels:
[1] = system: surinam grass; experiment: Test C pre-/postemergence herbicide test; format: in vivo, Brachiaria decumbens; settings: Preemergence
From the text: (§1) Seeds of plant species selected from blackgrass (Alopecurus myosuroides), ryegrass, Italian (Italian ryegrass, Lolium multiflorum), wheat (winter wheat, Triticum aestivum), galium (catchweed bedstraw, Galium aparine), corn (Zea mays), crabgrass, large (large crabgrass, Digitaria sanguinalis), foxtail, giant (giant foxtail, Setaria faberii), johnsongrass (Sorghum halepense), lambsquarters (Chenopodium album), morningglory (Ipomoea coccinea), nutsedge, yellow (yellow nutsedge, Cyperus esculentus), pigweed (Amaranthus retroflexus), ragweed (common ragweed, Ambrosia elatior), soybean (Glycine max), barnyardgrass (Echinochloa crus-galli), oilseed rape (Brassica napus), waterhemp (common waterhemp, Amaranthus rudis), kochia (Kochia scoparia), oat, wild (wild oat, Avena fatua), surinam grass (Brachiaria decumbens), foxtail, green (green foxtail, Setaria viridis), goosegrass (Eleusine indica), bromegrass, downy (downy bromegrass, Bromus tectorum), nightshade (eastern black nightshade, Solanum ptycanthum), cocklebur (common cocklebur, Xanthium strumarium), cupgrass, woolly (woolly cupgrass, Eriochloa villosa), bermudagrass (Cynodon dactylon), sunflower, (common oilseed sunflower, Helianthus annuus), Russian thistle (Salsola kali) and velvetleaf (Abutilon theophrasti) were planted into a blend of loam soil and sand and treated preemergence with test chemicals formulated in a non-phytotoxic solvent mixture which included a surfactant. At the same time, plants selected from these crop and weed species and also barley (winter barley, Hordeum vulgare), […]), chickweed (common chickweed, Stellaria media), deadnettle (henbit deadnettle, Lamium amplexicaule), and canarygrass (littleseed canarygrass, Phalaris minor) were planted in pots containing Redi-Earth® planting medium (Scotts Company, 14111 Scottslawn Road, Marysville, Ohio 43041) comprising spaghnum peat moss, vermiculite, wetting agent and starter nutrients and treated with postemergence applications of test chemicals formulated in the same manner. Plants ranged in height from 2 to 18 cm (1- to 4-leaf stage) for postemergence treatments. Treated plants and controls were maintained in a greenhouse for 13 to 15 days, after which time all species were compared to controls and visually evaluated. Plant response ratings, summarized in Table C, are based on a scale of 0 to 100 where 0 is no effect and 100 is complete control. A dash (-) response means no test result.

[2] = system: foxtail, green; experiment: Test C pre-/postemergence herbicide test; format: in vivo, Setaria viridis; settings: Preemergence; for Foxtail, Green plant response rating: 31 g ai/ha
From the text: as §1

[3] = system: goosegrass; experiment: Test C pre-/postemergence herbicide test; format: in vivo, Eleusine indica; settings: Preemergence; for Goosegrass plant response rating: 31 g ai/ha
Procedure, shortened: (§2)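 Pre- and postemergence greenhouse screen. Preemergence treatment went onto freshly planted seeds in loam–sand soil; postemergence treatment went onto plants 2 to 18 cm tall at the 1- to 4-leaf stage in sphagnum peat/vermiculite medium. Scoring at 13 to 15 days used a 0–100 control scale.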

[4] = system: bromegrass, downy; experiment: Test C pre-/postemergence herbicide test; format: in vivo, Bromus tectorum; settings: Preemergence; for Bromegrass, Downy plant response rating: 31 g ai/ha
Procedure, shortened: as §2

[5] = system: nightshade; experiment: Test C pre-/postemergence herbicide test; format: in vivo, Solanum ptycanthum; settings: Preemergence
Procedure, shortened: as §2

[6] = system: cocklebur; experiment: Test C pre-/postemergence herbicide test; format: in vivo, Xanthium strumarium; settings: Preemergence; for Cocklebur plant response rating: 31 g ai/ha
From the text: as §1

[7] = system: cupgrass, woolly; experiment: Test C pre-/postemergence herbicide test; format: in vivo, Eriochloa villosa; settings: Preemergence; for Cupgrass, Woolly plant response rating: 31 g ai/ha
From the text: as §1

[8] = system: bermudagrass; experiment: Test C pre-/postemergence herbicide test; format: in vivo, Cynodon dactylon; settings: Preemergence; for Bermudagrass plant response rating: 31 g ai/ha
Procedure, shortened: as §2

[9] = system: sunflower; experiment: Test C pre-/postemergence herbicide test; format: in vivo, Helianthus annuus; settings: Preemergence
Procedure, shortened: as §2

[10] = system: Russian thistle; experiment: Test C pre-/postemergence herbicide test; format: in vivo, Salsola kali; settings: Preemergence
From the text: as §1

[11] = system: wheat, spring; experiment: Test D pre-/postemergence herbicide test; format: in vivo, Triticum aestivum; settings: Postemergence, Wheat, Spring, scale 0 to 100
Procedure, shortened: (§3)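 Test chemicals, formulated in a non-phytotoxic solvent mixture with surfactant, are sprayed preemergence onto seeds in silt loam and postemergence onto plants of 2–18 cm. Plants are held in a controlled growth environment for 7 to 21 days, then rated visually versus controls (0–100).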

[12] = system: wheat, winter; experiment: Test D pre-/postemergence herbicide test; format: in vivo, Triticum aestivum; settings: Postemergence, Wheat, Winter, scale 0 to 100
Procedure, shortened: as §3

[13] = system: mustard, wild; experiment: Test D pre-/postemergence herbicide test; format: in vivo, Sinapis arvensis; settings: Postemergence, Mustard, Wild, scale 0 to 100
From the text: Seeds of plant species selected from bluegrass (annual bluegrass, Poa annua), blackgrass (Alopecurus myosuroides), canarygrass (littleseed canarygrass, Phalaris minor), chickweed (common chickweed, Stellaria media), galium (catchweed bedstraw, Galium aparine), bromegrass, downy (downy bromegrass, Bromus tectorum), field poppy (Papaver rhoeas), field violet (Viola arvensis), foxtail, green (green foxtail, Setaria viridis), deadnettle (henbit deadnettle, Lamium amplexicaule), ryegrass, Italian (Italian ryegrass, Lolium multiflorum), kochia (Kochia scoparia), lambsquarters (Chenopodium album), oilseed rape (Brassica napus), pigweed (Amaranthus retroflexus), chamomile (scentless chamomile, Matricaria inodora), Russian thistle (Salsola kali), speedwell (bird's-eye speedwell, Veronica persica), barley, spring (spring barley, Hordeum vulgare), wheat, spring (spring wheat, Triticum aestivum), buckwheat, wild (wild buckwheat, Polygonum convolvulus), mustard, wild (wild mustard, Sinapis arvensis), oat, wild (wild oat, Avena fatua), radish, wild (wild radish, Raphanus raphanistrum), […]), barley, winter (winter barley, Hordeum vulgare), and wheat, winter (winter wheat, Triticum aestivum) were planted into a silt loam soil and treated preemergence with test chemicals formulated in a non-phytotoxic solvent mixture which included a surfactant. At the same time, these species were planted in pots containing Redi-Earth® planting medium (Scotts Company, 14111 Scottslawn Road, Marysville, Ohio 43041) comprising spaghnum peat moss, vermiculite, wetting agent and starter nutrients and treated with postemergence applications of the test chemicals formulated in the same manner. Plants ranged in height from 2 to 18 cm (1- to 4-leaf stage). Treated plants and controls were maintained in a controlled growth environment for 7 to 21 days after which time all species were compared to controls and visually evaluated. Plant response ratings, summarized in Table D, are based on a scale of 0 to 100 where 0 is no effect and 100 is complete control. A dash (-) response means no test result.

[14] = 125 g ai/ha, scale 0 to 100 (0 no effect, 100 complete control)
[15] = scale 0 to 100 (0 no effect, 100 complete control)
[16] = 250 g ai/ha, scale 0 to 100 (0 no effect, 100 complete control)

O=C1NCC(c2ccc(F)cc2)C1C(=O)Nc1ccccc1F (racemic) [Compound 16]
98: Plant response rating, Surinam Grass [1, 14]
55: Cupgrass, Woolly plant response rating [7, 15]
5: Foxtail, Green plant response rating [2, 15] | Plant response rating, Bromegrass, Downy ([4]; 62 g ai/ha, scale 0 to 100)
80: Plant response rating, Foxtail, Green [2, 14]
95: Plant response rating, Surinam Grass ([1]; 62 g ai/ha, scale 0 to 100) | Plant response rating, Cupgrass, Woolly ([7]; 62 g ai/ha, scale 0 to 100) | Plant response rating, Cupgrass, Woolly [7, 14] | Plant response rating, Cupgrass, Woolly [7, 16] | Plant response rating, Bermudagrass [8, 16]
0: Goosegrass plant response rating [3, 15] | Plant response rating, Goosegrass ([3]; 62 g ai/ha, scale 0 to 100) | Plant response rating, Goosegrass [3, 14] | Bromegrass, Downy plant response rating [4, 15] | Plant response rating, Nightshade ([5]; 62 g ai/ha, scale 0 to 100) | Plant response rating, Nightshade [5, 14] | Cocklebur plant response rating [6, 15] | Plant response rating, Cocklebur ([6]; 62 g ai/ha, scale 0 to 100) | Plant response rating, Cocklebur [6, 14] | Plant response rating, Cocklebur [6, 16] | Bermudagrass plant response rating [8, 15] | Plant response rating, Bermudagrass ([8]; 62 g ai/ha, scale 0 to 100) | Plant response rating Sunflower ([9]; 62 g ai/ha, scale 0 to 100) | Plant response rating Sunflower [9, 14] | Plant response rating, Russian Thistle ([10]; 62 g ai/ha, scale 0 to 100) | Plant response rating, Russian Thistle [10, 14]
30: Plant response rating, Bromegrass, Downy [4, 14]
35: Plant response rating, Foxtail, Green ([2]; 62 g ai/ha, scale 0 to 100) | Plant response rating, Bromegrass, Downy [4, 16]
90: Plant response rating, Foxtail, Green [2, 16] | Plant response rating, Bermudagrass [8, 14]

O=C1NCC(c2cc(F)c(F)c(F)c2)C1C(=O)Nc1ccccc1C(F)(F)F (racemic) [Compound 33]
40: Plant response rating, Goosegrass [3, 14]
95: Plant response rating, Surinam Grass [1, 14] | Foxtail, Green plant response rating [2, 15]
100: Plant response rating, Foxtail, Green [2, 14] | Plant response rating, Foxtail, Green [2, 16]
60: Cupgrass, Woolly plant response rating [7, 15]
10: Plant response rating, Cocklebur [6, 14] | Plant response rating, Cocklebur [6, 16] | Plant response rating Sunflower ([9]; 62 g ai/ha, scale 0 to 100)
80: Plant response rating, Surinam Grass ([1]; 62 g ai/ha, scale 0 to 100)
5: Goosegrass plant response rating [3, 15] | Plant response rating, Goosegrass ([3]; 62 g ai/ha, scale 0 to 100)
0: Bromegrass, Downy plant response rating [4, 15] | Plant response rating, Bromegrass, Downy ([4]; 62 g ai/ha, scale 0 to 100) | Plant response rating, Bromegrass, Downy [4, 14] | Plant response rating, Nightshade ([5]; 62 g ai/ha, scale 0 to 100) | Plant response rating, Nightshade [5, 14] | Cocklebur plant response rating [6, 15] | Bermudagrass plant response rating [8, 15] | Plant response rating, Bermudagrass ([8]; 62 g ai/ha, scale 0 to 100) | Plant response rating ([11]; 16 g ai/ha) | Plant response rating ([11]; 31 g ai/ha) | Plant response rating ([11]; 62 g ai/ha) | Plant response rating ([11]; 125 g ai/ha) | Plant response rating ([11]; 250 g ai/ha) | Plant response rating ([12]; 16 g ai/ha) | Plant response rating ([12]; 31 g ai/ha) | Plant response rating ([12]; 62 g ai/ha) | Plant response rating ([12]; 125 g ai/ha) | Plant response rating ([12]; 250 g ai/ha) | Plant response rating ([13]; 16 g ai/ha) | Plant response rating ([13]; 31 g ai/ha) | Plant response rating ([13]; 62 g ai/ha) | Plant response rating ([13]; 125 g ai/ha) | Plant response rating ([13]; 250 g ai/ha)
98: Plant response rating, Foxtail, Green ([2]; 62 g ai/ha, scale 0 to 100) | Plant response rating, Bermudagrass [8, 16]
85: Plant response rating, Cupgrass, Woolly ([7]; 62 g ai/ha, scale 0 to 100)
70: Plant response rating, Bermudagrass [8, 14]
55: Plant response rating, Bromegrass, Downy [4, 16]
90: Plant response rating, Cupgrass, Woolly [7, 14] | Plant response rating, Cupgrass, Woolly [7, 16]

Cc1ccccc1NC(=O)C1C(=O)NCC1c1cc(F)c(F)c(F)c1 (racemic) [Compound 35]
80: Plant response rating, Cupgrass, Woolly ([7]; 62 g ai/ha, scale 0 to 100)
98: Plant response rating, Foxtail, Green ([2]; 62 g ai/ha, scale 0 to 100) | Plant response rating, Foxtail, Green [2, 14] | Plant response rating, Foxtail, Green [2, 16]
0: Goosegrass plant response rating [3, 15] | Plant response rating, Goosegrass ([3]; 62 g ai/ha, scale 0 to 100) | Bromegrass, Downy plant response rating [4, 15] | Plant response rating, Bromegrass, Downy ([4]; 62 g ai/ha, scale 0 to 100) | Plant response rating, Nightshade ([5]; 62 g ai/ha, scale 0 to 100) | Plant response rating, Nightshade [5, 14] | Cocklebur plant response rating [6, 15] | Plant response rating, Cocklebur ([6]; 62 g ai/ha, scale 0 to 100) | Plant response rating, Cocklebur [6, 14] | Plant response rating, Cocklebur [6, 16] | Bermudagrass plant response rating [8, 15] | Plant response rating, Bermudagrass ([8]; 62 g ai/ha, scale 0 to 100) | Plant response rating, Bermudagrass [8, 14] | Plant response rating Sunflower ([9]; 62 g ai/ha, scale 0 to 100) | Plant response rating, Russian Thistle ([10]; 62 g ai/ha, scale 0 to 100)
85: Plant response rating, Cupgrass, Woolly [7, 14]
75: Plant response rating, Bermudagrass [8, 16]
100: Plant response rating, Surinam Grass [1, 14]
90: Plant response rating, Surinam Grass ([1]; 62 g ai/ha, scale 0 to 100) | Foxtail, Green plant response rating [2, 15] | Plant response rating, Cupgrass, Woolly [7, 16]
55: Cupgrass, Woolly plant response rating [7, 15]
5: Plant response rating, Goosegrass [3, 14] | Plant response rating, Bromegrass, Downy [4, 14]
10: Plant response rating Sunflower [9, 14]
40: Plant response rating, Bromegrass, Downy [4, 16]

Reference: patent US10294202B2, “Pyrrolidinones as herbicides” (FMC Corporation, priority 2013, dated 2019)
